Assay results reported in ChEMBL document CHEMBL3044544, “Synthesis, preliminary cytotoxicity evaluation of new 3-formylchromone hydrazones and phosphorohydrazone derivatives of coumarin and chromone” (Med Chem Res, 2012).
Counter-ions that a name gives are not always drawn. Calls of active or inactive are those of the source. The calls are words filed in the database; no cut-off is given here.

Key:
Format in all cases: functional, cell-based
NALM-6 = experiment: Cytotoxicity against Homo sapiens (human) NALM6 cells assessed as reduction in cell survival fraction after 48 hr by MTT assay; details: NALM-6, 48 h
HL-60 [1] = experiment: Cytotoxicity against Homo sapiens (human) HL60 cells assessed as reduction in cell survival fraction after 48 hr by MTT assay; details: HL-60, 48 h
[2] = Cytotoxicity against Homo sapiens (human) HL60/ADR cells assessed as reduction in cell survival fraction after 48 hr by MTT assay
HL-60 [3] = experiment: Induction of apoptosis in Homo sapiens (human) HL60 cells assessed as increase in cytosolic cytochrome c level at 0.2 times IC50 after 0.5 hr by ELISA
HL-60 [4] = experiment: Induction of apoptosis in Homo sapiens (human) HL60 cells assessed as increase in cytosolic cytochrome c level at 5 times IC50 after 0.5 hr by ELISA
HL-60 [5] = experiment: Induction of apoptosis in Homo sapiens (human) HL60 cells assessed as increase in cytosolic cytochrome c level after 0.5 to 4 hr by ELISA
HL-60 [6] = experiment: Induction of apoptosis in Homo sapiens (human) HL60 cells assessed as increase in cytosolic cytochrome c level at IC50 after 0.5 hr by ELISA
HL-60 [7] = experiment: Induction of apoptosis in Homo sapiens (human) HL60 cells assessed as increase in cytosolic cytochrome c level at 0.2 to 5 times IC50 by ELISA; details: TDE = time-dependent effect

| Structure (SMILES) | IC50 (NALM-6) [µM] | IC50 (HL-60 [1]) [µM] | IC50 [2] [µM] | Activity (HL-60 [3]) | Activity (HL-60 [4]) | Activity (HL-60 [5]) | Activity (HL-60 [6]) | Activity (HL-60 [7]) |
| --- | --- | --- | --- | --- | --- | --- | --- | --- |
| CCOP(=S)(OCC)N(C)/N=C/c1c(O)c2ccccc2oc1=O | 66.5 | 86.3 |  |  |  |  |  |  |
| COC(=O)N/N=C/c1c(N)oc2ccccc2c1=O | 407 | 463 |  |  |  |  |  |  |
| Nc1oc2ccccc2c(=O)c1/C=N/N=C(c1ccccc1)c1ccccc1 | 102 | 56.2 | 54.8 |  |  |  |  |  |
| CC(=O)CC(c1ccccc1)c1c(O)c2ccccc2oc1=O (stereo not given) [WARFARIN] | 74.8 | 486 |  |  |  |  |  |  |
| Nc1oc2ccc(Cl)cc2c(=O)c1/C=N/NCCO | 28 | 6.6 | 7.9 | Active | Active | Dose-dependent effect | Active | tde |
| COP(=S)(OC)N(C)/N=C/c1c(O)c2ccccc2oc1=O | 56.5 | 61.8 |  |  |  |  |  |  |
| O=c1c(/C=N/Nc2cc(Cl)ccc2Cl)coc2ccccc12 | 85.3 | 265 |  |  |  |  |  |  |
| COP(=S)(OC)N(C)/N=C/c1coc2ccccc2c1=O | 28.8 | 34.4 | 30.6 | Active | Active | Dose-dependent effect | Active | tde |
| COC(=O)N/N=C/c1coc2ccccc2c1=O | 309 | 371 |  |  |  |  |  |  |
| Nc1oc2ccccc2c(=O)c1/C=N/Nc1cc(Cl)ccc1Cl | 500 | > 1000 |  |  |  |  |  |  |
| Nc1oc2ccccc2c(=O)c1/C=N/Nc1ccc(C(=O)O)cc1 | 628 | 940 |  |  |  |  |  |  |
| Cc1cc2oc(N)c(/C=N/NCCO)c(=O)c2cc1C | 65.3 | 23.5 |  |  |  |  |  |  |
| COc1cccc2c1C(=O)c1c(O)c3c(c(O)c1C2=O)C[C@@](O)(C(=O)CO)C[C@@H]3O[C@H]1C[C@H](N)[C@H](O)[C@H](C)O1 [DOXORUBICIN HYDROCHLORIDE] |  | 0.04 |  |  |  |  |  |  |
| Nc1oc2ccccc2c(=O)c1/C=N/NCCO | 42.1 | 48.5 |  |  |  |  |  |  |
